1 molecule from PMC7998669, “7-(2-Anilinopyrimidin-4-yl)-1-benzazepin-2-ones Designed by a “Cut and Glue” Strategy Are Dual Aurora A/VEGF-R Kinase Inhibitors” (Molecules, 2021) can be followed below.

Common to all, as to assay: radiometric 33PanQinase protein kinase assay
Holding throughout (assay type): biochemical
Details in all cases: 1 µM ATP

Test [1] has as its target T1, PDK1 (Homo sapiens, UniProt O15530).
T1 construct: host or cells: Sf9 (baculovirus)

Test [2] has as its target T2, FLT3 (Homo sapiens, UniProt P36888).
T2 construct: host or cells: Sf9 (baculovirus)

Test [3] has as its target T3, SAK (Homo sapiens, UniProt O00444).
T3 construct: host or cells: Sf9 (baculovirus)

Test [4] addresses T4, PDGFR-beta (Homo sapiens, UniProt P09619).
T4 construct: host or cells: Sf9 (baculovirus)

The target in test [5] is T5, IGF1-R (Homo sapiens, UniProt P08069).
T5 construct: host or cells: Sf9 (baculovirus)

The target in test [6] is T6, PLK1 (Homo sapiens, UniProt P53350).
T6 construct: host or cells: Sf9 (baculovirus)
T6 sequence (P53350 whole entry): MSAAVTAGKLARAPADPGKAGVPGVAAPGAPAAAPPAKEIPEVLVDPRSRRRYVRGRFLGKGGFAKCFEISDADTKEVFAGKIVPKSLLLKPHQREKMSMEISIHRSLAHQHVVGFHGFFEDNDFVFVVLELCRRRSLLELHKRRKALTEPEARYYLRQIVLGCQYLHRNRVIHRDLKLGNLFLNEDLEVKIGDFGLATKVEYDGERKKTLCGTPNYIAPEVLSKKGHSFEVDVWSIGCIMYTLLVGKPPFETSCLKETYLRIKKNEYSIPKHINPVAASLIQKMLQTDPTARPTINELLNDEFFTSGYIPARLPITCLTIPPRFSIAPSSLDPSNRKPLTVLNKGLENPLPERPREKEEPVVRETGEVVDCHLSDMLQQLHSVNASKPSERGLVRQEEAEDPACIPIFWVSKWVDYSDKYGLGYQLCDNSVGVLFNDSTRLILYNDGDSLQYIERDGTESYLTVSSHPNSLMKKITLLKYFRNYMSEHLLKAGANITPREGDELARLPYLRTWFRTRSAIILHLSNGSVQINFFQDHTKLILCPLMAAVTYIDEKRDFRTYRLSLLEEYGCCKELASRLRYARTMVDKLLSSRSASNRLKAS

Test [7] deals with T7, TIE2 (Homo sapiens, UniProt Q02763).
T7 construct: host or cells: Sf9 (baculovirus)

In test [8] the target is T8, AKT1 (Homo sapiens, UniProt P31749).
T8 construct: host or cells: Sf9 (baculovirus)
T8 sequence (P31749 whole entry): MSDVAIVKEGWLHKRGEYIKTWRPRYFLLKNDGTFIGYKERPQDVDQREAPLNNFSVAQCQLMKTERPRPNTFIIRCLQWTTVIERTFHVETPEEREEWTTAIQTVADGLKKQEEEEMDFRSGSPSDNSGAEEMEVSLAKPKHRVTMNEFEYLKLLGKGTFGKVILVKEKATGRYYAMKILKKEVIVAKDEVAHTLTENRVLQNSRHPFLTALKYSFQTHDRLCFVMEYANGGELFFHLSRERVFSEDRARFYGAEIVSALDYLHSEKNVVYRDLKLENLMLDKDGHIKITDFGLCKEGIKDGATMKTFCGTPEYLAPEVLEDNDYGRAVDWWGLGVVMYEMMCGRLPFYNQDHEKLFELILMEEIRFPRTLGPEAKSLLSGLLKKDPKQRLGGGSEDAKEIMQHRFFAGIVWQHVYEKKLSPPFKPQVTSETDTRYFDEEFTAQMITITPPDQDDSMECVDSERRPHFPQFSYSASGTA

Test [9] deals with T9, EGF-R (Homo sapiens, UniProt P00533).
T9 construct: host or cells: Sf9 (baculovirus)

Test [10] deals with T10, SRC (Homo sapiens, UniProt P12931).
T10 construct: host or cells: Sf9 (baculovirus)
T10 sequence (P12931 whole entry): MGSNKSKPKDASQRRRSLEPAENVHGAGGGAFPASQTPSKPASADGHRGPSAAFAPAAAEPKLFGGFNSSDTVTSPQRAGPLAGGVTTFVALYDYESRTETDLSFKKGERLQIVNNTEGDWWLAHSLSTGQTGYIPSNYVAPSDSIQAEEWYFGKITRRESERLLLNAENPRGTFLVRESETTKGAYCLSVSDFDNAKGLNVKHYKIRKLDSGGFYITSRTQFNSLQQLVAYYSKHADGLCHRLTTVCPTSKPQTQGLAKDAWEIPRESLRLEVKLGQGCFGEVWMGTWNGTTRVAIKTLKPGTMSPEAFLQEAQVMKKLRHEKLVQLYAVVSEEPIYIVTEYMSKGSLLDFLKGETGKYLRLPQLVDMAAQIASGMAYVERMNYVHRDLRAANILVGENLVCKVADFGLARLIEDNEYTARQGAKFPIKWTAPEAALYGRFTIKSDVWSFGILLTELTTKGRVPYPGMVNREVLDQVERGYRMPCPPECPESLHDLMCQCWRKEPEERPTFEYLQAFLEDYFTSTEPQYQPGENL

In test [11] the target is T11, PAK4 (Homo sapiens, UniProt O96013).
T11 construct: host or cells: Sf9 (baculovirus)

In test [12] the target is T12, ERBB2 (Homo sapiens, UniProt P04626).
T12 construct: host or cells: Sf9 (baculovirus)

Test [13] concerns the target T13, CK2-alpha1 (Homo sapiens, UniProt P68400).
T13 construct: host or cells: Sf9 (baculovirus)

Test [14] concerns the target T14, CDK2/CycA (Homo sapiens, UniProt P24941).
T14 construct: host or cells: Sf9 (baculovirus)

The structures appear in SMILES notation.

T1 sequence (O15530 whole entry): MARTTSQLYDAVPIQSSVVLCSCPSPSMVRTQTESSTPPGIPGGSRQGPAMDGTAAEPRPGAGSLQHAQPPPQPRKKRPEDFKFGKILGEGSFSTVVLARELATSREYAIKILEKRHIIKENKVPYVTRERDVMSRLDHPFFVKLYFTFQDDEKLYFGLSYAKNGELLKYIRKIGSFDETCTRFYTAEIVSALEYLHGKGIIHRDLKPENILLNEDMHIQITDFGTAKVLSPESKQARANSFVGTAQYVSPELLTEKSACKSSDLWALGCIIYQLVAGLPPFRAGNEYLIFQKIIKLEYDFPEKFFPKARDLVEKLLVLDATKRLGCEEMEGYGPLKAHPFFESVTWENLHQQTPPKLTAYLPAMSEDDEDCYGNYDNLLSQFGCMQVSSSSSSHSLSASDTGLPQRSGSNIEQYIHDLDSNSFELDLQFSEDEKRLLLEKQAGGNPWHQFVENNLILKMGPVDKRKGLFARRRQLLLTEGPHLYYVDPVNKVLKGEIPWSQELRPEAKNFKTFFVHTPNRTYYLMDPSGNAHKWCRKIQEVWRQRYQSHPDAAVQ
T4 sequence (P09619 33-1106): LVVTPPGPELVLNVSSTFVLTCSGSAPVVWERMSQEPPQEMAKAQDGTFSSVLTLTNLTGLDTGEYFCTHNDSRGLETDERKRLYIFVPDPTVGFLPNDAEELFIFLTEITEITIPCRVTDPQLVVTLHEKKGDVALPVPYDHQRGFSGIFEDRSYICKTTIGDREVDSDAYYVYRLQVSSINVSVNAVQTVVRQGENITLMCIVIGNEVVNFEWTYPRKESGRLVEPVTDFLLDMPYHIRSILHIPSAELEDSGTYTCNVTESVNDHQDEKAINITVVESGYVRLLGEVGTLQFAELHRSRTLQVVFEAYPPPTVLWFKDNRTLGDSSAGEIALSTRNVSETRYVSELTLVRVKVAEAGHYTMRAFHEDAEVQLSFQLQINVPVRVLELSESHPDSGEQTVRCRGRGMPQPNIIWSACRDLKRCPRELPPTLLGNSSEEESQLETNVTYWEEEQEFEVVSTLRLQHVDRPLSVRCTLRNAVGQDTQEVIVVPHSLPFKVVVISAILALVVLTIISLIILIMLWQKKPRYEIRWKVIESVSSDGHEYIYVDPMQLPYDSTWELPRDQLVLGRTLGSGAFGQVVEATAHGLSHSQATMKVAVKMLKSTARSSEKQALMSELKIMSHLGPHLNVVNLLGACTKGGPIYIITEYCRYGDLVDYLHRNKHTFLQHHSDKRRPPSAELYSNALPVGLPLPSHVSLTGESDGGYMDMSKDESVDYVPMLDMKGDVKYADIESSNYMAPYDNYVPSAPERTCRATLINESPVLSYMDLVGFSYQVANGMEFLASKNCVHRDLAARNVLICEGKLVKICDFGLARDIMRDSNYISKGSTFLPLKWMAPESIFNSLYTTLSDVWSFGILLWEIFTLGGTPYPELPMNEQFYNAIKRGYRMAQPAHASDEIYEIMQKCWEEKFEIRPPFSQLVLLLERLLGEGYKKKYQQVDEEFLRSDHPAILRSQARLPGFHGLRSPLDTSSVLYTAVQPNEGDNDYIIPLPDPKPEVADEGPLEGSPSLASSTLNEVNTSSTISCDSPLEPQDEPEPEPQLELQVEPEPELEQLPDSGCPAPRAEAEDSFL
T3 sequence (O00444 whole entry): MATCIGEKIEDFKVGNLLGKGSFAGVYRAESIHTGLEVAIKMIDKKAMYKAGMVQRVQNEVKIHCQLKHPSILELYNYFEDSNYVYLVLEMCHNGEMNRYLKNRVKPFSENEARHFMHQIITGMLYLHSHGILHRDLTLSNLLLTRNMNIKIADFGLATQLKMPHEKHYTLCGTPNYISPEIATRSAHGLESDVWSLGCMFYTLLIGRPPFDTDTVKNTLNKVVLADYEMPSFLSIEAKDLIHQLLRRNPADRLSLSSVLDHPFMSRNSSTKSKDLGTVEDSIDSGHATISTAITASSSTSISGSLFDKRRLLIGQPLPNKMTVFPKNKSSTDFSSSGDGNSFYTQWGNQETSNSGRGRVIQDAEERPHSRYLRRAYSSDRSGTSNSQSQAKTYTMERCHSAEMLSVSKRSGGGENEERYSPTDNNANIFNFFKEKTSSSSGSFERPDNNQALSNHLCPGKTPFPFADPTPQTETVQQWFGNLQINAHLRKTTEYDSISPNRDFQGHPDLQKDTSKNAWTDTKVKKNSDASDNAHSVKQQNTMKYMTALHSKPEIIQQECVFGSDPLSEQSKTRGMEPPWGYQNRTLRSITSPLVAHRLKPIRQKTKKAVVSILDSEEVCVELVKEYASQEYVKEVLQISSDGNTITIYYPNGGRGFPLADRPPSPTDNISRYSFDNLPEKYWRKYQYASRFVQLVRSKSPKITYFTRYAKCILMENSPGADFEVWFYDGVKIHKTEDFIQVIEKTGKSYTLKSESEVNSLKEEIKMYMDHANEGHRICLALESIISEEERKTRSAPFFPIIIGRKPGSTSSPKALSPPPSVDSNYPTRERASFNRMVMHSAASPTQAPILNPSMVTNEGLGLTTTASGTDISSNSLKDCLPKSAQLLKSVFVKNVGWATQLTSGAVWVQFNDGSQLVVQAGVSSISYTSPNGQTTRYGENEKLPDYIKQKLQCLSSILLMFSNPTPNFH
T13 sequence (P68400 whole entry): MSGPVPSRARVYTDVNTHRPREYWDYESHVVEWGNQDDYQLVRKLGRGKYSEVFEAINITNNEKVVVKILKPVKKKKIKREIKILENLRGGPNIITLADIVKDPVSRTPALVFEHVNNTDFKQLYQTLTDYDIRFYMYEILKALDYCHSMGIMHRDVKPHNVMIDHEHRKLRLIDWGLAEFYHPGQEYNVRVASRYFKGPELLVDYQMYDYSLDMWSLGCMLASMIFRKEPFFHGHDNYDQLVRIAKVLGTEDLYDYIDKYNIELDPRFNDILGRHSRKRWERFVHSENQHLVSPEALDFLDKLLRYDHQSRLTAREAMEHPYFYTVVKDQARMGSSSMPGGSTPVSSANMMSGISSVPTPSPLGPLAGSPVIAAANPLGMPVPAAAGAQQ

One may read the IC50 as the point on the concentration scale where inhibition reaches its midpoint. A lower IC50 goes with higher potency. On to `O=C1CCCc2cc(-c3ccnc(Nc4ccccc4)n3)ccc2N1` [Compound 2a, 7-(2-Anilinopyrimidin-4-yl)-1,3,4,5-tetrahydro-2H-1-benzazepin-2-one], for which the IC50 in test [1] was greater than 100 µM; in test [2] it was 16 µM; in test [3], greater than 100 µM; in test [4] it was 44 µM; in test [5], greater than 100 µM; in [6], greater than 100 µM. Besides, the IC50 was 19 µM in [7]; greater than 100 µM in test [8]; greater than 100 µM in test [9]; 74 µM in test [10]; greater than 100 µM in test [11]; greater than 100 µM in test [12]. Moreover, the IC50 in test [13] was greater than 100 µM; in test [14], 60 µM.
